Data as given in patent US10172905B1, “Treatment of protein degradation disorders” (President and Fellows of Harvard College, priority 2005, dated 2019).
“Also recorded” adds a separate entry of the source.

Tests used:
PBMCs = experiment: MTT cytotoxicity assay in normal PBMCs; assay type: cell-based, human; conditions: PBMCs from normal volunteers, tubacin 2.5-20 μM, 48 h
MM.1S cells [1] = experiment: Cell cycle profile by flow cytometry (PI staining); assay type: cell-based, human; conditions: 24 h
Description: […] Cells were then stained with propidium iodine (PI, Sigma) (5 μg/ml) and cell cycle profile was determined using program M software on an Epics flow cytometer (Coulter Immunology, Hialeah, Fla.) (44).

[2] = target: T1, interaction of HDAC6 with dynein (Homo sapiens, UniProt Q9UBN7); experiment: Co-immunoprecipitation of HDAC6 with dynein or ubiquitinated proteins; assay type: cell-based; conditions: tubacin 2.5 and 5 μM, 8 h, MM.1S cells
T1 sequence (Q9UBN7 1-1215): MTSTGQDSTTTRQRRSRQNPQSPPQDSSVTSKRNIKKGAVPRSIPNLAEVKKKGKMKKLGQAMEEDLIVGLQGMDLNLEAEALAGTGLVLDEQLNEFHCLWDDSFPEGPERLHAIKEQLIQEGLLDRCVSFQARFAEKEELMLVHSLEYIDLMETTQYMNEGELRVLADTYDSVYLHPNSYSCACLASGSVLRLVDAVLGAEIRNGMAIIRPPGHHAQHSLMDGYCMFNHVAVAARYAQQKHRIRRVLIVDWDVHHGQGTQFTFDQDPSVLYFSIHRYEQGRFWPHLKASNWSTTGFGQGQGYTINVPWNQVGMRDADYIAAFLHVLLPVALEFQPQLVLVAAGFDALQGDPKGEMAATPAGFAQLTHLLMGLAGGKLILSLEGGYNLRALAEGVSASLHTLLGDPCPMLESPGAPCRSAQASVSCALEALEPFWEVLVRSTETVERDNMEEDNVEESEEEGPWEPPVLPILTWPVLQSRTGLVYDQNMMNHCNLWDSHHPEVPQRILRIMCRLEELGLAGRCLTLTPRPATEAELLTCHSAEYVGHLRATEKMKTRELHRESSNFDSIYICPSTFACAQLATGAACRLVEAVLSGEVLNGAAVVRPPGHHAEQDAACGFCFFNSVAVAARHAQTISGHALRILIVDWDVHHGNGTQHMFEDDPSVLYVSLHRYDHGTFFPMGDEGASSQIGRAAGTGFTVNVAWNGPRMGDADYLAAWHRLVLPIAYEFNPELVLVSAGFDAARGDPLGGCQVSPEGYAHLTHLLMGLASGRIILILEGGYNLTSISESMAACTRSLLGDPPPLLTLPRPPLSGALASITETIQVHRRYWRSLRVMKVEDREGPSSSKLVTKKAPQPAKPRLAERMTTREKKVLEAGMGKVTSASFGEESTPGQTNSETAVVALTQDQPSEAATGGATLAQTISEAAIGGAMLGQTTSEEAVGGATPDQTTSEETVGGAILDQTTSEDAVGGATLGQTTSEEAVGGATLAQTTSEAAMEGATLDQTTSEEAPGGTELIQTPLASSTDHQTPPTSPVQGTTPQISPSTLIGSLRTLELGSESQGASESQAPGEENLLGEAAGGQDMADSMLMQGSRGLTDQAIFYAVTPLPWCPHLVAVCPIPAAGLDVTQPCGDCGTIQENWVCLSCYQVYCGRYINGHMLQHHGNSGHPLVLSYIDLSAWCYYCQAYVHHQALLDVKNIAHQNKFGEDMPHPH
Description: (§1) Cells cultured with tubacin and/or bortezomib were harvested; washed, and lysed using lysis buffer: 50 mM Tris-HCl (pH 7.4), 150 mM NaCl, 1% NP-40, 5 mM EDTA, 5 mM NaF, 1 mM Na3VO4, 1 mM PMSF, 5 μg/ml leupeptine, and 5 μg/ml aprotinin. Whole cell lysates were subjected to SDS-PAGE, transferred to nitrocellulose membrane (Bio-Rad Laboratories, Hercules, Calif.), and immunoblotted with specific Abs (31). Western blotting was done using anti-HDAC6, acetylated lysine, acetylated histone H3, acetylated histone H4, ubiquitin (Ub), phospho-SAPK (JNK), caspase-8 caspase-9, caspase-3, and PARP Abs (Cell Signaling, Beverly, Mass.); with anti-α-tubulin Ab (Santa Cruz Biotechnology, Santa Cruz, Calif.); as well as with anti-dynein Ab (Sigma, Saint Louis, Mo.). For immunoprecipitation, whole cell lysates were incubated with anti-Ub or dynein Abs overnight at 4° C., and then incubated with protein A/G PLUS-Agarose (Santa Cruz Biotechnology) for 2 h at 4° C., as in our prior study (31). Immunoprecipitates were then subjected to Western blotting for detection of HDAC6 and dynein.

[3] = tested on: JNK phosphorylation and caspase/PARP cleavage; experiment: Western blotting for p21Cip1, p-JNK, caspases and PARP; assay type: cell-based, human
Description: MM cells were cultured with Velcade and/or Tubacin; harvested; washed; and lysed using lysis buffer: 50 mM Tris-HCl (pH 7.4), 150 mM NaCl, 1% NP-40, 5 mM EDTA, 5 mM NaF, 2 mM Na3VO4, 1 mM PMSF, 5 μg/ml leupeptine, and 5 μg/ml aprotinin. Cell lysates were subjected to SDS-PAGE, transferred to PVDF membrane (Bio-Rad Laboratories, Hercules, Calif.), and immunoblotted with Abs against specific proteins.
as §1

MM.1S and RPMI cells = experiment: Synergy with Velcade/Bortezomib in myeloma cell lines; assay type: cell-based
MM.1S cells [4] = experiment: [3H]-thymidine uptake with or without IL-6; assay type: cell-based, human; conditions: tubacin 1.25-5 μM, IL-6 5-20 ng/ml, 48 h
Description: Proliferation was measured by ^3H-thymidine uptake. Briefly, MM cells (3×10^4 cells/well) were incubated in 96-well culture plates in the presence of media, Velcade and/or Tubacin for 48 h at 37° C. DNA synthesis was measured by [^3H]-thymidine ([^3H]-TdR, Perkin Elmer, Boston, Mass.) uptake. Cells were pulsed with [^3H]TdR (0.5 μCi/well) during the last 8 h of 48 h cultures. All experiments were performed in triplicate.

[5] = tested on: MM.1S cells and RPMI cells; experiment: Inhibition of protein catabolism in myeloma cells; assay type: cell-based; conditions: FIG. 18
A549 lung cancer cells = conditions: previously reported; cited from earlier work

Q: Which results are given for `O=C(CCCCCCC(=O)Nc1ccc([C@H]2O[C@@H](CSc3nc(-c4ccccc4)c(-c4ccccc4)o3)C[C@@H](c3ccc(CO)cc3)O2)cc1)NO` [tubacin]?
A: cytotoxicity of tubacin in PBMCs (PBMCs): no cytotoxicity; also recorded: No adverse effect; G2/M arrest triggered by Velcade (MM.1S cells [1]; Velcade 5 nM with tubacin 5 μM): significantly inhibits G2/M arrest; cell cycle profile (MM.1S cells [1]; tubacin 5 μM alone): does not alter cell cycle profile; co-immunoprecipitation between HDAC6 and ubiquitinated proteins [2]: unaffected; co-immunoprecipitation of HDAC6 with dynein [2]: markedly inhibited in a dose-dependent fashion; also recorded: inhibits binding of HDAC6 with dynein; phosphorylation of JNK and caspase/PARP cleavage ([3]; MM.1S cells, tubacin 5 μM and/or bortezomib 5 nM, 24 h): does not trigger phosphorylation of JNK or caspase/PRAP cleavage; induction of p21Cip1 induced by bortezomib ([3]; tubacin 5 μM + bortezomib 5 nM, MM.1S, 24 h): inhibits induction of p21^Cip1 induced by bortezomib; induction of p21Cip1 ([3]; tubacin 5 μM alone, MM.1S, 24 h): does not trigger induction of p21^Cip1; caspase-8/PARP cleavage ([3]; tubacin 10 μM, 0-24 h, MM.1S and RPMI8226 cells): time-dependent caspase-8/PARP cleavage is induced; also recorded: induces cytotoxicity via activation of caspases; synergy with Velcade (MM.1S and RPMI cells; MM.1S and RPMI cells): synergy; toxicity and synergy with Bortezomib (MM.1S and RPMI cells; MM.1S cells): toxicity and synergy; toxicity and synergy with Bortezomib (MM.1S and RPMI cells; RPMI-8226 cells): toxicity and synergy; growth inhibitory / cytotoxic effect of tubacin in the presence of IL-6 (MM.1S cells [4]): maintained; also recorded: did not overcome; inhibition of protein catabolism [5]: potent inhibitors of protein catabolism; histone acetylation, transcriptional profile, cell cycle, viability (A549 lung cancer cells): no effect on histone acetylation, the transcriptional profile, cell cycle, or viability of A549 lung cancer cells
